Laboratory results taken from US9102621B2, “Acyl sulfonamide compounds” (Pfizer Limited, priority 2010, dated 2015).
Counter-ions that a name gives are not always drawn.

Target: T1, Nav1.7 (or SCN9A) channel (Homo sapiens, UniProt Q15858)
T1 construct: expressed in transfected cells
Test: Nav1.7 (hSCN9A) channel block, PatchXpress whole-cell electrophysiology
Type: cell-based
Conditions: PatchXpress platform; HEK cells stably transfected with hSCN9A; estimated IC-50 calculated from single point % inhibition at V1/2; read-out: Nav1.7 EIC50
Method: The ability of the compounds of formula (I) to block the Nav1.7 (or SCN9A) channel were measured using the assay described below.
Human Embryonic Kidney (HEK) cells were transfected with an hSCN9A construct using lipofectamine reagent (Invitrogen), using standard techniques. Cells stably expressing the hSCN9A constructs were identified by their resistance to G-418 (400 μg/ml). Clones were screened for expression using the whole-cell voltage-clamp technique.
HEK cells stably transfected with hSCN9A were maintained in DMEM medium supplemented with 10% heat-inactivated fetal bovine serum and 400 μg/ml G-418 in an incubator at 37° C. with a humidified atmosphere of 10% CO2. For HTS, cells were harvested from flasks by trypsinization and replated in an appropriate multi-well plate (typically 96 or 384 wells/plate) such that confluence would be achieved within 24 hours of plating. For electrophysiological studies, cells were removed from the culture flask by brief trypsinization and re-plated at low density onto glass cover slips. Cells were typically used for electrophysiological experiments within 24 to 72 hours after plating.
Cover slips containing HEK cells expressing hSCN9A were placed in a bath on the stage of an inverted microscope and perfused (approximately 1 ml/minutes) with extracellular solution of the following composition: 138 mM NaCl, 2 mM CaCl2, 5.4 mM KCl, 1 mM MgCl2, 10 mM glucose, and 10 mM HEPES, pH 7.4, with NaOH. […] The osmolarity of the extracellular and intracellular solutions was 300 mOsm/kg and 295 mOsm/kg, respectively. All recordings were made at room temperature (22-24° C.) using AXOPATCH 200B amplifiers and PCLAMP software (Axon Instruments, Burlingame, Calif.).
hSCN9A currents in HEK cells were measured using the whole-cell configuration of the patch-clamp technique (Hamill et al., 1981). Uncompensated series resistance was typically 2 to 5 mega ohms and >85% series resistance compensation was routinely achieved. As a result, voltage errors were negligible and no correction was applied. Current records were acquired at 20 to 50 KHz and filtered at 5 to 10 KHz.
HEK cells stably transfected with hSCN9A were viewed under Hoffman contrast optics and placed in front of an array of flow pipes emitting either control or compound-containing extracellular solutions. All compounds were dissolved in dimethyl sulfoxide to make 10 mM stock solutions, which were then diluted into extracellular solution to attain the final concentrations desired. […] The voltage-dependence of inactivation was determined by applying a series of depolarizing prepulses (8 sec long in 10 mV increments) from a negative holding potential. The voltage was then immediately stepped to 0 mV to assess the magnitude of the sodium current. Currents elicited at 0 mV were plotted as a function of prepulse potential to allow estimation of the voltage at which 50% of the channels were inactivated (midpoint of inactivation or V1/2). Compounds were tested for their ability to inhibit hSCN9A sodium channels by activating the channel with a 20 msec voltage step to 0 mV following an 8 second conditioning prepulse to the empirically determined V1/2. Compound effect (% inhibition) was determined by difference in current amplitude before and after application of test compounds. […] Inhibition values <20% and >80% were excluded from the calculation.
Electrophysiological assays were conducted with PatchXpress 7000 hardware and associated software (Molecular Devices Corp). All assay buffers and solutions were identical to those used in conventional whole-cell voltage clamp experiments described above. hSCN9A cells were grown as above to 50%-80% confluency and harvested by trypsinization. Trypsinized cells were washed and resuspended in extracellular buffer at a concentration of 1×10^6 cells/ml. The onboard liquid handling facility of the PatchXpress was used for dispensing cells and application of test compounds. […]

T1 sequence (Q15858 whole entry): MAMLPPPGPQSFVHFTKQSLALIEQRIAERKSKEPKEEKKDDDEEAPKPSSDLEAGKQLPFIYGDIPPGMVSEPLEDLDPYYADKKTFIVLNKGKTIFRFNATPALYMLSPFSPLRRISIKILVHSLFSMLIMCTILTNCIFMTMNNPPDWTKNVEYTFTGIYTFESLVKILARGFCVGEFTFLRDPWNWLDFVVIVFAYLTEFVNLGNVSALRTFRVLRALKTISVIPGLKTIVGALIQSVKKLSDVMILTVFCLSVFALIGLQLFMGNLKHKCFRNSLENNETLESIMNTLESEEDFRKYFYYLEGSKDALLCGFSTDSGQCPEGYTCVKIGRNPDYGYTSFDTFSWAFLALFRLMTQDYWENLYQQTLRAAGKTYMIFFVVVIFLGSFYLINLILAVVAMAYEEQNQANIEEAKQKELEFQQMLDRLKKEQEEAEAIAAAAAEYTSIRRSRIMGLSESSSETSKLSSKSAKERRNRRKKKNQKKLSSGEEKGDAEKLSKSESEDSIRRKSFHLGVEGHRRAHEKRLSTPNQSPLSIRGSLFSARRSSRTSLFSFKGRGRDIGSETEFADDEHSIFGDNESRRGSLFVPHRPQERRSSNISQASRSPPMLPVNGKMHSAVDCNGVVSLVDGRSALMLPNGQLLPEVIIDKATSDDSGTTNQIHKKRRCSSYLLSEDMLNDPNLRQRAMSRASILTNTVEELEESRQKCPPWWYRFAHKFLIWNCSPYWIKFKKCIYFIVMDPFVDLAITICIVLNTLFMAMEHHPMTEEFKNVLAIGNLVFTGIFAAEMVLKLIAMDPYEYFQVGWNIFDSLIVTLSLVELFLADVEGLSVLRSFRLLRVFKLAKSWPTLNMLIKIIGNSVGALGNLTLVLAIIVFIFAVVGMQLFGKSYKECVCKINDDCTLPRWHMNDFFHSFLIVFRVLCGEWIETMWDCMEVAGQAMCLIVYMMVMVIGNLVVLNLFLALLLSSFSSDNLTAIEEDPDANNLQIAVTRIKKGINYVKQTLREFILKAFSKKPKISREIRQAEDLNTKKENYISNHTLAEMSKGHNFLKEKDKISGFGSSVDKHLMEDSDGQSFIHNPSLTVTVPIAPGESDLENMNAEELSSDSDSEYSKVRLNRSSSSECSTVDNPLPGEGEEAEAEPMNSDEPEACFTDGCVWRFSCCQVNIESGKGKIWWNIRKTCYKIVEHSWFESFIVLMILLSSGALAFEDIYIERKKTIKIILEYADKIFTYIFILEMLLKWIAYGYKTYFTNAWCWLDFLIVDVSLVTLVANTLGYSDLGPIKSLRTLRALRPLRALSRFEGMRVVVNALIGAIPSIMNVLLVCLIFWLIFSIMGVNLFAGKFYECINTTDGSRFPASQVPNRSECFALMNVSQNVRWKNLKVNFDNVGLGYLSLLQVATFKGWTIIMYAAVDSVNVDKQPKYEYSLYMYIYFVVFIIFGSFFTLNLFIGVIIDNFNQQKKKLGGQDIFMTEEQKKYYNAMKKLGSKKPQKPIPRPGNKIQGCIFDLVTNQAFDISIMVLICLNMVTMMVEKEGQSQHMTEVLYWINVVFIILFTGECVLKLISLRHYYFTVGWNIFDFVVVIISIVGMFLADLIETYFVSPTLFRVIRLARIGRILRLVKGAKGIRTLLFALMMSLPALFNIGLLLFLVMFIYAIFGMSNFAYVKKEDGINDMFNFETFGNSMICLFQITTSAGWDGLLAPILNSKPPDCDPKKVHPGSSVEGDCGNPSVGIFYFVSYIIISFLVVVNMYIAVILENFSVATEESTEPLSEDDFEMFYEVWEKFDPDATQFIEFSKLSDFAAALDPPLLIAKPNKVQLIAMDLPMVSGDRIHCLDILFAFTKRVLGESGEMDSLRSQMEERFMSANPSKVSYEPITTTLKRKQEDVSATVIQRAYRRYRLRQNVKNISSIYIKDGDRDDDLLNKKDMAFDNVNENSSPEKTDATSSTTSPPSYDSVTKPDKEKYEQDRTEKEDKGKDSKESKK

SMILES | IC50 [nM]
CC(C)COc1ncc(OCc2cc(F)c(C(=O)NS(C)(=O)=O)cc2F)cc1Cl [Example 1, 4-{[(5-Chloro-6-isobutoxypyridin-3-yl)oxy]methy}-2,5-difluoro-N-(methylsulfonyl)benzamide diethylamine salt] | 13.9
CC(C)COc1ncc(OCc2ccc(C(=O)NS(C)(=O)=O)cc2)cc1Cl [Example 3, 4-{[(5-Chloro-6-isobutoxypyridin-3-yl)oxy]methyl}-N-(methylsulfonyl)benzamide diethylamine salt] | 324
COc1cc(C(=O)NS(C)(=O)=O)ccc1COc1cnc(OCC(C)C)c(Cl)c1 [Example 5, 4-((5-Chloro-6-isobutoxypyridin-3-yloxy)methyl)-3-methoxy-N-(methylsulfonyl)benzamide diethylamine salt] | 281
COc1ncc(OCc2ccc(C(=O)NS(C)(=O)=O)cc2)cc1Cl [Example 6, 4-((5-Chloro-6-methoxypyridin-3-yloxy)methyl)-N-(methylsulfonyl)benzamide] | 3580
CS(=O)(=O)NC(=O)c1ccc(OCc2ccc(C(F)(F)F)nc2)cc1 [Example 9, N-(methylsulfonyl)-4-{[6-(trifluoromethyl)pyridin-3-yl]methoxy}benzamide formate salt] | > 1000
CS(=O)(=O)NC(=O)c1ccc(COc2cncc(Cl)c2)cc1 [Example 10, 4-((5-Chloropyridin-3-yloxy)methyl)-N-(methylsulfonyl)benzamide] | 8460
CS(=O)(=O)NC(=O)c1cc(F)c(COc2cnc(OCCC(F)(F)F)c(Cl)c2)cc1F [Example 11, 4-({[5-Chloro-6-(3,3,3-trifluoropropoxy)pyridin-3-yl]oxy}methyl)-2,5-difluoro-N-(methylsulfonyl)benzamide] | 39.2
CC(C)(F)COc1ncc(OCc2cc(F)c(C(=O)NS(C)(=O)=O)cc2F)cc1Cl [Example 13, 4-((5-Chloro-6-(2-fluoro-2-methylpropoxy)pyridin-3-yloxy)methyl)-2,5-difluoro-N-(methylsulfonyl)benzamide] | 81.4
[2H]C([2H])([2H])C(Oc1ncc(OCc2cc(F)c(C(=O)NS(C)(=O)=O)cc2F)cc1Cl)(C([2H])([2H])[2H])C([2H])([2H])[2H] [Example 15] | 30.8
CC(C)(C)Oc1ncc(OCc2cc(F)c(C(=O)NS(C)(=O)=O)cc2F)cc1Cl [Example 18, 4-((6-tert-Butoxy-5-chloropyridin-3-yloxy)methyl)-2,5-difluoro-N-(methylsulfonyl)benzamide] | 80.6
[2H]C([2H])([2H])C([2H])(Oc1ncc(OCc2cc(F)c(C(=O)NS(C)(=O)=O)cc2F)cc1Cl)C([2H])([2H])[2H] [Example 21, 4-{[(5-Chloro-6-d7-isopropoxypyridin-3-yl)oxy]methyl}-2,5-difluoro-N-(methylsulfonyl)benzamide] | 161
CS(=O)(=O)NC(=O)c1cc(F)c(COc2cnc(OCC(F)(F)C(F)(F)F)c(Cl)c2)cc1F [Example 25, 4-({[5-Chloro-6-(2,2,3,3,3-pentafluoropropoxy)pyridin-3-yl]oxy}methyl)-2,5-difluoro-N-(methylsulfonyl)benzamide] | 18.6
CS(=O)(=O)NC(=O)c1cc(F)c(COc2ccc(C(F)(F)F)nc2)cc1F [Example 26, 2,5-Difluoro-N-(methylsulfonyl)-4-({[6-(trifluoromethyl)pyridin-3-yl]oxy}methyl)benzamide] | 4980
COc1ncc(OCc2cc(F)c(C(=O)NS(C)(=O)=O)cc2F)cc1Cl [Example 28, 4-((5-Chloro-6-methoxypyridin-3-yloxy)methyl)-2,5-difluoro-N-(methylsulfonyl)benzamide] | 7440
CS(=O)(=O)NC(=O)c1cc(Cl)c(COc2cnc(OC(C(F)(F)F)C(F)(F)F)c(Cl)c2)cc1F [Example 30, 5-Chloro-4-((5-chloro-6-(1,1,1,3,3,3-hexafluoropropan-2-yloxy)pyridin-3-yloxy)methyl)-2-fluoro-N-(methylsulfonyl)benzamide] | < 100

Further lines, results first:

IC50 [nM] | SMILES
2600 | COc1ncc(OCc2cc(F)c(C(=O)NS(=O)(=O)C3CC3)cc2F)cc1Cl [Example 4, 4-((5-Chloro-6-methoxypyridin-3-yloxy)methyl)-N-(cyclopropylsulfonyl)-2,5-difluorobenzamide]
35700 | COc1ccc(OCc2ccc(C(=O)NS(C)(=O)=O)cc2)cn1 [Example 7, 4-{[(6-Methoxypyridin-3-yl)oxy]methyl}-N-(methylsulfonyl)benzamide]
843 | CS(=O)(=O)NC(=O)c1cc(F)c(COc2cnc(C(F)(F)F)c(Cl)c2)cc1F [Example 12, 4-({[5-Chloro-6-(trifluoromethyl)pyridin-3-yl]oxy}methyl)-2,5-difluoro-N-(methylsulfonyl)benzamide]
66.8 | CC1(COc2ncc(OCc3cc(F)c(C(=O)NS(C)(=O)=O)cc3F)cc2Cl)CC1 [Example 14, 4-((5-Chloro-6-((1-methylcyclopropyl)methoxy)pyridin-3-yloxy)methyl)-2,5-difluoro-N-(methylsulfonyl)benzamide]
150 | CS(=O)(=O)NC(=O)c1cc(F)c(COc2cnc(OCC(F)(F)F)c(Cl)c2)cc1F [Example 16, 4-((5-Chloro-6-(2,2,2-trifluoroethoxy)pyridin-3-yloxy)methyl)-2,5-difluoro-N-(methylsulfonyl)benzamide]
156 | CS(=O)(=O)NC(=O)c1cc(F)c(COc2cnc(OCC3CC3)c(Cl)c2)cc1F [Example 17, 4-((5-Chloro-6-(cyclopropylmethoxy)pyridin-3-yloxy)methyl)-2,5-difluoro-N-(methylsulfonyl)benzamide]
730 | CS(=O)(=O)NC(=O)c1cc(F)c(COc2cnc(OCC3CC(F)(F)C3)c(Cl)c2)cc1F [Example 19, 4-((5-Chloro-6-((3,3-difluorocyclobutyl)methoxy)pyridin-3-yloxy)methyl)-2,5-difluoro-N-(methylsulfonyl)benzamide]
> 3000 | CS(=O)(=O)NC(=O)c1cc(F)c(COc2cncc(Cl)c2)cc1F [Example 20, 4-{[(5-Chloropyridin-3-yl)oxy]methyl}-2,5-difluoro-N-(methylsulfonyl)benzamide]
9.2 | CS(=O)(=O)NC(=O)c1cc(F)c(COc2cnc(OCC(F)(F)C(F)F)c(Cl)c2)cc1F [Example 22, 4-({[5-Chloro-6-(2,2,3,3-tetrafluoropropoxy)pyridin-3-yl]oxy}methyl)-2,5-difluoro-N-(methylsulfonyl)benzamide]
140 | [2H]C(C)(C)Oc1ncc(OCc2cc(F)c(C(=O)NS(C)(=O)=O)cc2F)cc1Cl [Example 24, 4-{[(5-Chloro-6-d1-isopropoxypyridin-3-yl)oxy]methyl}-2,5-difluoro-N-(methylsulfonyl)benzamide]
42 | CC(Oc1ncc(OCc2cc(F)c(C(=O)NS(C)(=O)=O)cc2F)cc1Cl)C(F)(F)F (stereo not shown) [Example 27, 4-((5-Chloro-6-(1,1,1-trifluoropropan-2-yloxy)pyridin-3-yloxy)methyl)-2,5-difluoro-N-(methylsulfonyl)benzamide]
838 | CC(C)Oc1ncc(COc2cc(F)c(C(=O)NS(C)(=O)=O)cc2F)cc1Cl [Example 29, 4-((5-Chloro-6-isopropoxypyridin-3-yl)methoxy)-2,5-difluoro-N-(methylsulfonyl)benzamide diethylamine salt]
< 100 | CC(Oc1ncc(OCc2cc(F)c(C(=O)NS(C)(=O)=O)cc2Cl)cc1Cl)C(F)(F)F (stereo not shown) [Example 31, 5-Chloro-4-((5-chloro-6-(1,1,1-trifluoropropan-2-yloxy)pyridin-3-yloxy)methyl)-2-fluoro-N-(methylsulfonyl)benzamide]
